From the supplement of paper PMC10307832

How the values were obtained:
Assay in all cases: relative viability (nuclei count vs DMSO), 5 days (fraction); higher = more cells survive
Sunitinib + Phenformin = compound: CCN(CC)CCNC(=O)c1c(C)[nH]c(/C=C2\C(=O)Nc3ccc(F)cc32)c1C [Sunitinib] + N=C(N)NC(=N)NCCc1ccccc1 [Phenformin] (partner 250 µM)
Procedure, shortened: (§1)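 One day after seeding in 1536-well plates, lung cancer cell lines were dosed by pin tool. Dosing was either single-drug or a fixed anchor-drug dose plus five library-drug doses (not always all listed) in √10 steps. After 5 days, nuclei were stained in one fix-and-stain step and counted on 4× images, and relative viability is the nuclei count of treated wells over that of vehicle wells, given as the median of duplicate plates.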

Sunitinib + Pictilisib = compound: CCN(CC)CCNC(=O)c1c(C)[nH]c(/C=C2\C(=O)Nc3ccc(F)cc32)c1C [Sunitinib] + CS(=O)(=O)N1CCN(Cc2cc3nc(-c4cccc5[nH]ncc45)nc(N4CCOCC4)c3s2)CC1 [Pictilisib] (partner 1 µM)
Procedure, shortened: as §1

Sunitinib + Alpelisib = compound: CCN(CC)CCNC(=O)c1c(C)[nH]c(/C=C2\C(=O)Nc3ccc(F)cc32)c1C [Sunitinib] + Cc1nc(NC(=O)N2CCC[C@H]2C(N)=O)sc1-c1ccnc(C(C)(C)C(F)(F)F)c1 [Alpelisib] (partner 2 µM)
Procedure, shortened: as §1

Sunitinib + AZD7762 = compound: CCN(CC)CCNC(=O)c1c(C)[nH]c(/C=C2\C(=O)Nc3ccc(F)cc32)c1C [Sunitinib] + NC(=O)Nc1cc(-c2cccc(F)c2)sc1C(=O)N[C@H]1CCCNC1 [AZD7762] (partner 0.2 µM)
Procedure, shortened: as §1

Row | Cell Line | relative viability (Sunitinib + Phenformin; first compound 0.02 µM) | relative viability (Sunitinib + Phenformin; first compound 0.06325 µM) | relative viability (Sunitinib + Phenformin; first compound 0.2 µM) | relative viability (Sunitinib + Phenformin; first compound 0.6325 µM) | relative viability (Sunitinib + Phenformin; first compound 2 µM) | relative viability (Sunitinib + Pictilisib; first compound 0.02 µM) | relative viability (Sunitinib + Pictilisib; first compound 0.06325 µM) | relative viability (Sunitinib + Pictilisib; first compound 0.2 µM) | relative viability (Sunitinib + Pictilisib; first compound 0.6325 µM) | relative viability (Sunitinib + Pictilisib; first compound 2 µM) | relative viability (Sunitinib + Alpelisib; first compound 0.06325 µM) | relative viability (Sunitinib + Alpelisib; first compound 0.2 µM) | relative viability (Sunitinib + Alpelisib; first compound 0.6325 µM) | relative viability (Sunitinib + Alpelisib; first compound 2 µM) | relative viability (Sunitinib + AZD7762; first compound 0.06325 µM) | relative viability (Sunitinib + AZD7762; first compound 0.2 µM) | relative viability (Sunitinib + AZD7762; first compound 0.6325 µM) | relative viability (Sunitinib + AZD7762; first compound 2 µM) | relative viability (Sunitinib + Alpelisib; first compound 0.02 µM) | relative viability (Sunitinib + AZD7762; first compound 0.02 µM)
1 | LOU-NH91 | 0.734 | 0.699 | 0.765 | 0.825 | 0.764 | 0.525 | 0.537 | 0.533 | 0.556 | 0.53 | 0.71 | 0.76 | 0.752 | 0.652 | 0.688 | 0.879 | 0.831 | 0.756 | – | –
2 | LU99A | 0.727 | 0.906 | 1 | 0.803 | 0.782 | 0.308 | 0.352 | 0.282 | 0.317 | 0.313 | 0.547 | 0.586 | 0.566 | – | 0.311 | 0.343 | 0.325 | 0.368 | 0.512 | 0.334
3 | LXF-289 | 0.461 | 0.517 | 0.548 | 0.533 | 0.511 | 0.743 | 0.874 | 0.868 | 0.786 | 0.881 | 1.02 | 1.13 | 1.12 | 1.04 | 1.16 | 1.14 | 1.19 | 1.08 | 1.01 | 1.08
4 | NCI-H23 | 0.753 | – | 0.93 | 0.878 | 0.763 | 0.498 | 0.594 | 0.483 | 0.468 | 0.504 | 0.747 | 0.751 | 0.828 | 0.692 | 0.281 | 0.36 | 0.226 | 0.241 | 0.568 | 0.287
5 | NCI-H322M | 0.736 | 0.857 | – | 0.855 | 0.7 | 0.497 | 0.553 | 0.582 | 0.511 | 0.474 | 0.739 | 0.855 | 0.822 | 0.664 | 0.559 | 0.524 | 0.651 | 0.64 | 0.728 | 0.611
6 | NCI-H358 | 0.322 | 0.447 | 0.373 | 0.348 | 0.29 | 0.369 | 0.38 | 0.34 | 0.359 | 0.261 | 0.803 | – | 0.762 | 0.451 | 0.596 | 0.637 | 0.427 | 0.449 | 0.902 | 0.59
7 | NCI-H441 | 0.729 | 0.816 | 0.781 | 0.957 | 0.793 | 0.431 | 0.546 | 0.48 | 0.476 | 0.428 | 0.83 | 0.766 | 0.569 | 0.487 | 1.25 | 1.36 | 1.24 | 1.17 | – | –
8 | NCI-H460 | 0.48 | 0.567 | 0.54 | 0.535 | 0.487 | 0.323 | 0.19 | 0.441 | 0.366 | 0.304 | 0.567 | 0.615 | 0.661 | 0.258 | 0.592 | 0.615 | 0.659 | 0.568 | 0.454 | 0.653
9 | NCI-H596 | 0.641 | 0.816 | 0.829 | 0.792 | 0.723 | 0.376 | 0.392 | 0.428 | 0.394 | 0.434 | 0.596 | 0.604 | 0.485 | 0.42 | 1.12 | 1.18 | – | 0.858 | 0.476 | –
10 | NCI-H647 | 0.489 | 0.72 | 0.542 | 0.55 | 0.471 | 0.302 | 0.381 | – | 0.373 | 0.454 | 1.04 | 1.36 | 1.21 | 0.82 | 0.48 | 0.546 | 0.642 | 0.469 | 1.05 | 0.482
11 | NCI-H650 | 0.444 | 0.46 | 0.428 | 0.49 | 0.465 | 0.828 | 1.09 | 0.932 | 0.858 | 0.843 | 0.608 | 1.25 | 1.14 | 1.16 | 1.15 | 0.945 | 1.1 | 0.944 | 0.891 | 0.882
12 | NCI-H727 | 0.475 | 0.733 | 0.649 | 0.67 | 0.538 | 0.278 | 0.417 | 0.542 | 0.325 | 0.344 | 0.546 | 0.647 | 0.559 | 0.537 | 0.575 | 0.554 | 0.612 | 0.618 | 0.532 | 0.652
13 | NCI-H838 | 0.546 | 0.769 | 0.583 | 0.583 | 0.511 | 0.409 | 0.499 | 0.506 | 0.487 | 0.361 | 0.999 | 1.16 | 0.992 | – | 0.907 | 1.01 | 0.993 | 0.884 | – | 0.956
14 | NCI-H1355 | 0.441 | 0.453 | 0.473 | 0.482 | 0.432 | 0.431 | 0.448 | 0.477 | 0.399 | 0.447 | 0.848 | – | 0.829 | 0.857 | 0.845 | 0.859 | 0.767 | 0.689 | 0.73 | 0.764
15 | NCI-H1395 | 0.462 | 0.415 | 0.446 | 0.487 | 0.482 | 0.609 | 0.646 | 0.662 | 0.614 | 0.594 | 1.14 | 1.72 | 1.31 | 1.05 | 0.431 | 0.413 | 0.418 | 0.421 | 0.995 | 0.422
16 | NCI-H1437 | 0.362 | 0.314 | 0.321 | 0.297 | 0.323 | 0.376 | 0.559 | 0.427 | 0.456 | 0.434 | 0.974 | – | 1.01 | 0.905 | 1.14 | 1.15 | 1.13 | 1.07 | 0.949 | 1.09
17 | NCI-H1651 | 0.289 | 0.332 | 0.352 | 0.353 | 0.368 | 0.462 | 0.729 | 0.616 | 0.614 | 0.593 | 0.969 | 1.17 | 1.02 | 0.991 | 0.478 | 0.451 | 0.441 | 0.449 | 0.738 | 0.462
